Reference: patent publication US20120202690A1, “HERBICIDAL COMPOUNDS” (SYNGENTA LIMITED, priority 2009, published 2012)

What was measured:
Assay type in all cases: in vivo
[1] = test system: Amaranthus retroflexus (AMARE); test: Post-emergence biological efficacy, glasshouse, 500 or 1000 g/ha, evaluated after 13 days (100=total damage to plant; 0=no damage to plant); settings: Amaranthus retroflexus, 312 h, rate 1,000 g/ha, read-out: Percentage damage caused to weed species, post-emergence, AMARE
Procedure, shortened: (§1)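 Damage is scored on pot-grown plants, sown in standard soil and sprayed after emergence, that were held post-treatment in a glasshouse (24/16° C. day/night, 14 hours light, 65% humidity).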

Solanum nigrum (SOLNI) [2] = test: as above; settings: Solanum nigrum, 312 h, rate 1,000 g/ha, read-out: Percentage damage caused to weed species, post-emergence, SOLNI
Procedure, shortened: as §1

[3] = test system: Ipomoea hederaceae (IPOHE); test: as above; settings: Ipomoea, 312 h, rate 1,000 g/ha, read-out: Percentage damage caused to weed species, post-emergence, IPOHE
Procedure, shortened: as §1

[4] = test system: Alopecurus myosuroides (ALOMY); test: as above; settings: Alopecurus myosuroides, 312 h, rate 1,000 g/ha, read-out: Percentage damage caused to weed species, post-emergence, ALOMY
Procedure, shortened: as §1

[5] = test system: Echinochloa crusgaffi (ECHCG); test: as above; settings: Echinochloa, 312 h, rate 1,000 g/ha, read-out: Percentage damage caused to weed species, post-emergence, ECHCG
Procedure, shortened: as §1

Setaria faberi (SETFA) [6] = test: as above; settings: Setaria faberi, 312 h, rate 1,000 g/ha, read-out: Percentage damage caused to weed species, post-emergence, SETFA
Procedure, shortened: as §1

[7] = test system: Amaranthus retroflexus (AMARE); test: Pre-emergence biological efficacy, glasshouse, 1000 g/ha, evaluated after 13 days (100=total damage to plant; 0=no damage to plant); settings: Amaranthus retroflexus, 312 h, rate 1,000 g/ha, read-out: Percentage damage caused to weed species, pre-emergence, AMARE
Procedure, shortened: (§2)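 Test species are sown into pots of standard soil. Plants then grow in the glasshouse under controlled conditions (24/16° C. day/night, 14 hours light, 65% humidity) and receive water twice a day.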

Solanum nigrum (SOLNI) [8] = test: as above; settings: Solanum nigrum, 312 h, rate 1,000 g/ha, read-out: Percentage damage caused to weed species, pre-emergence, SOLNI
Procedure, shortened: as §2

[9] = test system: Ipomoea hederaceae (IPOHE); test: as above; settings: Ipomoea, 312 h, rate 1,000 g/ha, read-out: Percentage damage caused to weed species, pre-emergence, IPOHE
Procedure, shortened: as §2

[10] = test system: Alopecurus myosuroides (ALOMY); test: as above; settings: Alopecurus myosuroides, 312 h, rate 1,000 g/ha, read-out: Percentage damage caused to weed species, pre-emergence, ALOMY
Procedure, shortened: as §2

[11] = test system: Echinochloa crus-galli (ECHCG); test: as above; settings: Echinochloa crus-galli, 312 h, rate 1,000 g/ha, read-out: Percentage damage caused to weed species, pre-emergence, ECHCG
Procedure, shortened: as §2

Setaria faberi (SETFA) [12] = test: as above; settings: Setaria faberi, 312 h, rate 1,000 g/ha, read-out: Percentage damage caused to weed species, pre-emergence, SETFA
Procedure, shortened: as §2

| Structure (SMILES) | pest or weed control at 1000 g/ha [1] | pest or weed control at 1000 g/ha (Solanum nigrum (SOLNI) [2]) | pest or weed control at 1000 g/ha [3] | pest or weed control at 1000 g/ha [4] | pest or weed control at 1000 g/ha [5] | pest or weed control at 1000 g/ha (Setaria faberi (SETFA) [6]) | pest or weed control at 1000 g/ha [7] | pest or weed control at 1000 g/ha (Solanum nigrum (SOLNI) [8]) | pest or weed control at 1000 g/ha [9] | pest or weed control at 1000 g/ha [10] | pest or weed control at 1000 g/ha [11] | pest or weed control at 1000 g/ha (Setaria faberi (SETFA) [12]) |
| --- | --- | --- | --- | --- | --- | --- | --- | --- | --- | --- | --- | --- |
| C=CCOC(=O)c1nc(-c2ccc(Cl)c(OC)c2F)nc2[nH]cc(C)c12 [Compound 1-80, 2-(4-Chloro-2-fluoro-3-methoxyphenyl)-5-methyl-4-(prop-2-enyloxycarbonyl)-7H-pyrrolo[2,3-d]pyrimidine] | 60% | 80% | 40% | 0% | 10% | 0% | 0% | 0% | 0% | 0% | 0% | 0% |
| COc1c(Cl)ccc(-c2nc(C(=O)O)c3cc(C)[nH]c3n2)c1F [Compound 1-65] | 40% | 60% | 60% | 0% | 40% | 10% | 0% | 0% | 0% | 0% | 0% | 0% |
| COC(=O)c1nc(C2CC2)nc2c1cc(C)n2Cc1ccccc1[N+](=O)[O-] [Compound 8-6, 2-Cyclopropyl-4-methoxycarbonyl-6-methyl-7-(2-nitrophenyl-methyl)-7H-pyrrolo[2,3-d]pyrimidine] | 20% | 20% | 50% | 0% | 0% | 0% | 0% | 0% | 0% | 0% | 0% | 0% |
| COC(=O)c1nc(-c2ccc(Cl)c(OC)c2F)nc2c1c(C)cn2C [Compound 2-64, 2-(4-Chloro-2-fluoro-3-methoxyphenyl)-5,7-dimethyl-4-methoxycarbonyl-7H-pyrrolo[2,3-d]pyrimidine] | 30% | 60% | 40% | 0% | 0% | 0% | 30% | 40% | 50% | 0% | 0% | 0% |
| COc1c(Cl)ccc(-c2nc(C(=O)O)c3cc(C)n(Cc4ccccc4)c3n2)c1F [Compound 6-65, 4-Carboxy-2-(4-chloro-2-fluoro-3-methoxyphenyl)-6-methyl-7-phenylmethyl-7H-pyrrolo[2,3-d]pyrimidine] | 20% | 80% | 40% | 0% | 0% | 0% | 0% | 0% | 0% | 0% | 0% | 0% |
| COC(=O)c1nc(-c2ccc(Cl)c(OC)c2F)nc2[nH]cc(C)c12 [Compound 1-64, 2-(4-chloro-2-fluoro-3-methoxyphenyl)-4-methoxycarbonyl-5-methyl-7H-pyrrolo[2,3-d]pyrimidine] | 100% | 80% | 70% | 20% | 70% | 70% | 100% | 70% | 100% | 20% | 30% | 10% |
| COCCOCCOC(=O)c1nc(-c2ccc(Cl)c(OC)c2F)cc2[nH]cc(C)c12 [Compound 22-85, 6-(4-Chloro-2-fluoro-3-methoxyphenyl)-4-{2-[(2-methoxy)-ethoxy]-ethoxycarbonyl}-3-methyl-1H-pyrrolo[3,2-c]pyridine] | 90% | 90% | 40% | 30% | 20% | 20% | 100% | 100% | 80% | 10% | 10% | 10% |
| O=C(O)c1nc(C2CC2)nc2c1ccn2Cc1ccccc1[N+](=O)[O-] [Compound 8-1, 4-Carboxy-2-cyclopropyl-7-(2-nitrophenyl-methyl)-7H-pyrrolo[2,3-d]pyrimidine] | 0% | 30% | 40% | 0% | 10% | 0% | 0% | 0% | 0% | 0% | 0% | 0% |
| COC(=O)c1nc(-c2ccc(Cl)c(F)c2)nc2[nH]c(C)cc12 [Compound 1-22, 2-(4-Chloro-3-fluorophenyl)-4-methoxycarbonyl-6-methyl-7H-pyrrolo[2,3-d]pyrimidine] | 20% | 30% | 40% | 10% | 0% | 10% | 0% | 0% | 0% | 0% | 0% | 0% |
| COC(=O)c1nc(-c2ccc(Cl)c(N(C)C)c2F)nc2[nH]c(C)cc12 [Compound 1-118, 2-(4-chloro-3-dimethylamino-2-fluorophenyl)-4-methoxycarbonyl-6-methyl-7H-pyrrolo[2,3-d]pyrimidine] | 100% | 80% | 50% | 10% | 50% | 70% | 40% | 70% | 40% | 0% | 10% | 20% |
| COC(=O)c1nc(-c2ccc(Cl)c(N(C)C)c2F)nc2[nH]cc(C)c12 [Compound 1-116, 2-(4-Chloro-3-dimethylamino-2-fluorophenyl)-4-methoxycarbonyl-5-methyl-7H-pyrrolo[2,3-d]pyrimidine] | 50% | 40% | 50% | 0% | 0% | 20% | 0% | 0% | 0% | 0% | 0% | 0% |
